Assay results from patent US20240417410A1, “TRICYCLIC COMPOUNDS FOR THE TREATMENT OF CANCER” (Hoffmann-La Roche Inc., priority 2023, published 2024).
Like-named read-outs stand apart in the source and are kept apart here.

Tests used:
[1] = Single dose pharmacokinetics (PK) study in female BALB/c mice; type: in vivo, mouse
Method: The purpose of this study was to determine the pharmacokinetics of selected compounds following single intravenous bolus or oral gavage administration in female BALB/c mice. Briefly, two groups of female BALB/c mice (available from Shanghai Lingchang Biotechnology Co., Ltd) (N=3/group) were treated with a single dose of compound intravenously at 3 mg/kg (IV) or orally at 30 mg/kg (PO). Blood samples were collected at 5 min (only for IV), […], 30 min, 1 h, 2 h, 4 h, 7 h and 24 h post-dose. Blood samples were placed on ice until centrifugation to obtain plasma samples. The concentration of compound in plasma samples was determined using LC-MS/MS method. The pharmacokinetic parameters were calculated by non-compartmental analysis.

BEN = test: Cell proliferation, CTG 3D, 7 d; type: cell-based; settings: Homo sapiens, KRAS (WT ampl)
Method: (§1) On Day-1, cells were plated in 384-well round-bottom ultra-low adhesion plates (cat. Corning 3830, with cell density adjusted according to Table 3. The assay plate was then centrifuged at 1000 rpm for 1 minute to ensure even distribution of cells. The plate was incubated at 37° C. in a 5% CO2 atmosphere (It is worth noting that for SW1271 cell plate, it needs to be incubated in an incubator without additional CO2).
(§2) On Day 0, Example 24 or A122 was added to each well using a Tecan HP D300E dispenser, with a 3-fold dilution across 9 doses. The final concentration of DMSO was normalized to 0.2%. The assay plate was then centrifuged at 1000 rpm for 1 minute and incubated for 7 days.
(§3) On Day 7, CellTiter-Glo (CTG) 3D reagent (Promega G9683) was dispensed into each well of a 384-well plate using a multi-drop dispenser (Thermo Scientific 66413). A liquid handling automation workstation (Bravo with a 384-well head) was used to mix the CTG reagents. Plates were left on a shaker for 30 minutes at 450 rpm, shielded from light.
(§4) For data analysis, the XL-fit software (Supplier: ID Business Solutions Ltd., Software version: XL fit 5.0) was utilized. The percentage of inhibition was calculated using the formula: Inhibition %=(Max-Sample value)/(Max-Min)×100. Curve fitting was performed as follows: For complete dose-response curves, the relative IC50 was reported from the fit. For incomplete curves, if minimal inhibition was greater than 50%, an IC50 less than the lowest compound concentration was reported. If minimal inhibition was between 20% and 50%, the bottom was locked at 0% and the IC50 was reported. If maximal inhibition was less than 50%, an IC50 greater than the highest compound concentration was reported.

GP5d = test: Cell proliferation, CTG 3D, 7 d; type: cell-based; settings: Homo sapiens, KRAS (G12D)
Method: as §1, §2, §3, §4

HCC-15 = test: Cell proliferation, CTG 3D, 7 d; type: cell-based; settings: Homo sapiens, HCC15
Method: as §1, §2, §3, §4

HCT-116 = test: Cell proliferation, CTG 3D, 7 d; type: cell-based; settings: Homo sapiens
Method: as §1, §2, §3, §4

HT1080 = test: Cell proliferation, CTG 3D, 7 d; type: cell-based; settings: Homo sapiens, HT-1080
Method: as §1, §2, §3, §4

HuT 78 = test: Cell proliferation, CTG 3D, 7 d; type: cell-based; settings: Homo sapiens, HuT78
Method: as §1, §2, §3, §4

KP-2 = test: Cell proliferation, CTG 3D, 7 d; type: cell-based; settings: Homo sapiens
Method: as §1, §2, §3, §4

KYSE-30 = test: Cell proliferation, CTG 3D, 7 d; type: cell-based; settings: Homo sapiens
Method: as §1, §2, §3, §4

LS513 = test: Cell proliferation, CTG 3D, 7 d; type: cell-based; settings: Homo sapiens, LS-513; LS513, KRAS (G12D)
Method: as §1, §2, §3, §4

NCI-H1876 = test: Cell proliferation, CTG 3D, 7 d; type: cell-based; settings: Homo sapiens
Method: as §1, §2, §3, §4

NCI-H1915 = test: Cell proliferation, CTG 3D, 7 d; type: cell-based; settings: Homo sapiens
Method: as §1, §2, §3, §4

NCI-H23 = test: Cell proliferation, CTG 3D, 7 d; type: cell-based; settings: Homo sapiens; NCI-H23, KRAS (G12C)
Method: as §1, §2, §3, §4

NCI-H650 = test: Cell proliferation, CTG 3D, 7 d; type: cell-based; settings: Homo sapiens
Method: as §1, §2, §3, §4

NCI-H838 = test: Cell proliferation, CTG 3D, 7 d; type: cell-based; settings: Homo sapiens; NCI-H838, KRAS (WT ampl)
Method: as §1, §2, §3, §4

PK-59 = test: Cell proliferation, CTG 3D, 7 d; type: cell-based; settings: Homo sapiens; PK-59, KRAS (G12D)
Method: as §1, §2, §3, §4

PSN-1 = test: Cell proliferation, CTG 3D, 7 d; type: cell-based; settings: Homo sapiens, PSN1
Method: as §1, §2, §3, §4

RERF-LC-Ad1 = test: Cell proliferation, CTG 3D, 7 d; type: cell-based; settings: Homo sapiens
Method: as §1, §2, §3, §4

SK-LU-1 = test: Cell proliferation, CTG 3D, 7 d; type: cell-based; settings: Homo sapiens; SK-LU-1, KRAS (G12D)
Method: as §1, §2, §3, §4

SKM-1 = test: Cell proliferation, CTG 3D, 7 d; type: cell-based; settings: Homo sapiens
Method: as §1, §2, §3, §4

SW 837 = test: Cell proliferation, CTG 3D, 7 d; type: cell-based; settings: Homo sapiens, SW837; SW 837, KRAS (G12C)
Method: as §1, §2, §3, §4

T84 = test: Cell proliferation, CTG 3D, 7 d; type: cell-based; settings: Homo sapiens
Method: as §1, §2, §3, §4

Toledo = test: Cell proliferation, CTG 3D, 7 d; type: cell-based; settings: Homo sapiens
Method: as §1, §2, §3, §4

UMC-11 = test: Cell proliferation, CTG 3D, 7 d; type: cell-based; settings: Homo sapiens; UMC-11, KRAS (WT ampl)
Method: as §1, §2, §3, §4

[2] = 30 mg/kg, po, female BALB/c mice

With `CCn1c(-c2cc(N3CCN(C)CC3)cnc2[C@H](C)OC)c2c3cc(ccc31)-c1csc(n1)C[C@H](NC(=O)[C@H]1C[C@@H]1C)C(=O)N1CCC[C@H](N1)C(=O)OCC(C)(C)O2` [Example A122, reference compound] the clearance ([1]; female, BALB/c, mouse, plasma, iv, 3 mg/kg, female BALB/c mice) was 33.9 mL/min/kg, the AUC(0-t) ([1]; female, BALB/c, mouse, plasma, po, 30 mg/kg, female BALB/c mice) was 9760 ng·h/mL and the Cmax ([1]; female, BALB/c, mouse, plasma, po, 30 mg/kg, po, female BALB/c mice, read-out: Cmax) was 2530 ng/mL. It also gave an IC50 (BEN) of 43 nM, an IC50 (GP5d) of 0.41 nM and an IC50 (HCC-15) of 1.7 nM. It also gave an IC50 (HCT-116; HCT-116) of 1.9 nM, an IC50 (HT1080) of 0.49 nM and an IC50 (HuT 78) of 0.55 nM. For the same compound, the IC50 (KP-2) was 0.43 nM, the IC50 (KYSE-30; KYSE-30) was 1 nM and the IC50 (LS513) was 0.47 nM. The IC50 (NCI-H1876) was 3.6 nM, the IC50 (NCI-H1915; NCI-H1915) was 10 nM and the IC50 (NCI-H23) was 0.33 nM. It also gave an IC50 (NCI-H650) of 9.6 nM, an IC50 (NCI-H838) of 100 nM and an IC50 (PK-59) of 0.62 nM. It also gave an IC50 (PSN-1) of 1.2 nM, an IC50 (RERF-LC-Ad1) of 0.22 nM and an IC50 (SK-LU-1) of 0.56 nM. For the same compound, the IC50 (SKM-1; SKM-1) was 1.3 nM, the IC50 (SW 837) was 0.67 nM and the IC50 (T84; T84) was 100 nM. The IC50 (Toledo) was 100 nM and the IC50 (UMC-11) was 100 nM.
`CO[C@@H](C)c1ncc(N2CCN(C)CC2)cc1-c1c2c3cc(cc4c3n1CCC4)-c1csc(n1)C[C@H](NC(=O)[C@H]1[C@H](C)[C@@H]1C)C(=O)N1CCC[C@H](N1)C(=O)OCC(C)(C)C2` (atropisomer, axis not shown; (M)) [Example 24, (1r,2R,3S)-N-[(7S,13S)-(20M)-20-[2-[(1S)-1-methoxyethyl]-5-(4-methylpiperazin-1-yl)-3-pyridyl]-17,17-dimethyl-8,14-dioxo-15-oxa-4-thia-9,21,30,31-tetrazahexacyclo[23.3.1.1^2,5.1^9,13.0^19,27.0^21,26]hentriaconta-1 (28),2,5 (31), 19,25 (29),26-hexaen-7-yl]-2,3-dimethyl-cyclopropanecarboxamide] showed a CL ([1]; 3 mg/kg, iv, female BALB/c mice) of 5.3 mL/min/kg, an AUC0-last [1, 2] of 57240 ng·h/mL and a Cmax [1, 2] of 10498 ng/mL. For the same compound, the “fold increase in AUC0-last compared with compound A122” value ([1]; 30 mg/kg, po, mouse) was 6 fold, the “fold increase in AUC0-last compared with compound A252” value ([1]; 30 mg/kg, po, mouse) was 4 fold and the “fold increase in Cmax compared with compound A122” value ([1]; 30 mg/kg, po, mouse) was ~4 fold. The “fold increase in Cmax compared with compound A252” value ([1]; 30 mg/kg, po, mouse) was 4.3 fold, the IC50 (BEN) was 40 nM and the IC50 (GP5d) was 0.48 nM. It also gave an IC50 (HCC-15; HCC-15, NRAS (p.Q61K), read-out: IC50) of 0.68 nM, an IC50 (HCT-116; HCT-116, KRAS (G13D), read-out: IC50) of 1.9 nM and an IC50 (HT1080; HT1080, NRAS (p.Q61K), read-out: IC50) of 0.36 nM. It also gave an IC50 (HuT 78; HuT 78, NRAS (p.Q61K), read-out: IC50) of 0.3 nM, an IC50 (KP-2; KP-2, KRAS (G12R), read-out: IC50) of 0.35 nM and an IC50 (KYSE-30; KYSE-30, HRAS (p.Q61L), read-out: IC50) of 0.46 nM. For the same compound, the IC50 (LS513) was 0.68 nM, the IC50 (NCI-H1876; NCI-H1876, NRAS (p.Q61K), read-out: IC50) was 3.1 nM and the IC50 (NCI-H1915; NCI-H1915, HRAS (p.Q61L), read-out: IC50) was 3.6 nM. The IC50 (NCI-H23) was 0.17 nM, the IC50 (NCI-H650) was 2.3 nM and the IC50 (NCI-H838) was 100 nM. For the same compound, the IC50 (PK-59) was 0.44 nM, the IC50 (PSN-1; PSN-1, KRAS (G12R), read-out: IC50) was 0.85 nM and the IC50 (RERF-LC-Ad1; RERF-LC-Ad1, KRAS (G12A), read-out: IC50) was 0.3 nM. For the same compound, the IC50 (SK-LU-1) was 0.5 nM, the IC50 (SKM-1; SKM-1, KRAS (K117N), read-out: IC50) was 0.93 nM and the IC50 (SW 837) was 0.22 nM. The IC50 (T84; T84, KRAS (G13D), read-out: IC50) was 100 nM, the IC50 (Toledo; KRAS (G13D), read-out: IC50) was 100 nM and the IC50 (UMC-11) was 100 nM.
